Data published in patent US20060229354A1, “Use of Isatin in stimulating red blood cell production and treatment of anemia” (priority 2005, published 2006).

Experiments:
UT7/EPO cells [1] = test: MTT assay, EPO-deprived UT7/EPO cells; type: cell-based; details: Isatin treatment
Description: UT7/EPO cells were cultured for 4 hours and then placed in triplicate in 96 well microtiter plates. The cell was treated with Isatin or EPO or PBS and cultured in 100 ul of DMEM, 10% FCS, overnight. The next day, media was removed and replace MTT assay solution. The plates were incubated for and addition 48 hours. And then cell viability was determined using a MTT assay, as described by manufacture (Sigma).

UT7/EPO cells [2] = test: DNA Ladder Detection Assay, EPO-deprived UT7/EPO cells; type: cell-based; details: Isatin treatment
Description: 10^6 UT7/EPO cells, after treated with either Isatin or EPO or PBS, was lysed with 150 ul hypotonic lysis buffer (10 mM EDTA, 0.5% Triton X-100 in […] Tris-HCl, pH 7.4) for 15 minutes on ice and were precipitated with 2.5% polyethylene glycerol and 1 M NaCl for 15 minutes at 4 C. After centrifugation at 16,000 rpm for 10 minutes at room temperature, the supernatant was incubated in the presence of proteinase K (0.3 g/L) at 37° C. for one hour and precipitated with isopropanol at −20° C. After centrifugation, each cell pellet was dissolved in 10 ul of Tris-EDTA (pH 7.6) and electrophoresed on a 1.5% agarose gell containing ethidium bromide. Ladder formation of oligonucleosomal DNA was detected under ultraviolet.

UT7/EPO cells [3] = test: Apoptosis Assay (AA), EPO-deprived UT7/EPO cells; type: cell-based
Description: UT7/EPO cells treated by Isatin or EPO or PBS was plated in triplicate in 96-well microtiter plates in 50 μl of culture medium and incubated for different time course. The cell apoptosis products were determined by Florence-probe. The cell apoptosis rate was calculated by positive apoptosis fragments.
We used several assays as mentioned in Materials and Methods section to evaluate the pharmacological activity of Isatin compound by examining the growth or the apoptosis of UT7/EPO cells. The cells used in AA assay are UT7/EPO. UT7/EPO cells were deprived from UT7 by elegant genetic engineering. As a result, the survival and growth of UT7/EPO cells rely on the stimulation of EPO-R by the exogenous EPO treatment. On the other hand, without the support of the exogenous EPO, the UT7/EPO cells will die. […] We used different assays to measure the level of apoptosis in UT7/EPO cells. If the tested compounds have erythropoietic agonist effect, the level of apoptosis in UT7/EPO cells should decrease in response to the treatment. […] Compared to EPO, higher dose of Isatin was required to generate the same extent of inhibition.

JAK2-associated EPOR = test: Immunoprecipitate study of phosphorylation of JAK2-associated EPOR in UT7/EPO cells; type: cell-based
Description: Referring to FIG. 5B, the Isatin-induced EPO-R phosphorylation occurs 5 minutes after the treatment and sustains beyond 1 hour afterwards.

UT7/EPO cells [4] = test: Calcein-AM release assay, EPO-deprived UT7/EPO cells; type: cell-based; details: Isatin treatment
Description: Calcein-AM was purchased from Molecular Probes (Eugene) as a 1 mg/ml solution in dry dimethyl sulfoxide. UT7/EPO cells were resuspended in complete medium at a final concentration of 10^6/ml and incubated with 15 uM calcein-AM for 30 mininutes at 37° C. with occasional shaking. After two washes in the same way as the ^51Cr assay in V bottom 96-well microtiter plates, with E:T ratios ranging from 50:1 to 0.5:1, in triplicate, and with at least six replicate wells for spontaneous and maximum release. Various numbers of UT7/EPO cells treated with Isatin or EPO or with untreated cells were seeded as follows. After incubation 37° C. in 5% CO2 for 4 hours, 75 ul of each supernatant was harvested and transferred into new plates. The samples were measured using a Sepctramax Gemini dual-scanning microplate spectrofluoimeter. Data were expressed as arbitrary fluorescent unites (AFU). Percent lysis was calculated with the same formula used for the ^51Cr for the ^51CR assay.

RPM18226 cells = test: Melphalan-induced apoptosis in RPM18226 cells; type: cell-based; details: data not shown
MO7E cells = test: Apoptosis Assay (AA), GM-CSF-deprived MO7E cells; type: cell-based; details: FIG. 4
UT7/EPO cells [5] = test: Viable cell counts (trypan blue staining), EPO-deprived UT7/EPO cells; type: cell-based; details: Isatin treatment
STAT5 = test: Immunoprecipitate analysis of STAT5 phosphorylation in UT7/EPO cells; type: cell-based; details: FIG. 6
Excerpt: FIG. 6 illustrates the results of Immunoprecipiate analysis of the effects of EPO and Isatin on STAT5 phosphorylation in UT7/EPO Cells.
Activation of EPO-R by EPO is predominately mediated by JAK signaling pathway, and STAT5 protein is the major component involving in this signal transduction. We studied the activity of STAT5 in response to Isatin treatment.

[6] = tested on: freshly isolated peripheral blood mononuclear cells; test: Melphalan-induced apoptosis in peripheral blood mononuclear cells; type: cell-based; details: data not shown
[7] = initial phase of therapy; cited from earlier work
[8] = refrigerator between 2° C. and 8° C.; cited from earlier work

IC50 (UT7/EPO cells [3]; Homo sapiens, UT-7/Epo, read-out: IC50 for inhibiting apoptosis in UT7/EPO cells)	Compound	MTT (cell viability) (UT7/EPO cells [1])	DNA Ladder Assay (UT7/EPO cells [2])	effect of Isatin used together with EPO on apoptosis inhibition / EPO-R activity (UT7/EPO cells [3]; Isatin together with EPO, UT7/EPO cells, FIG. 3)	AA (apoptosis) (UT7/EPO cells [3]; Isatin treatment, EPO-deprived UT7/EPO cells)	erythropoietic stimulation effect compared with EPO (UT7/EPO cells [3]; UT7/EPO cells, comparison with EPO)	apoptosis inhibition on UT7/EPO cells, concentration dependence (UT7/EPO cells [3]; increasing Isatin concentration, FIGS. 2A and 2B)	duration of EPO-R phosphorylation after treatment (JAK2-associated EPOR; FIG. 5B)	time of onset of EPO-R phosphorylation after treatment (JAK2-associated EPOR; FIG. 5B)	phosphorylation of EPO-R through JAK2 mediated signaling pathway (JAK2-associated EPOR; FIGS. 5A and 5B)	phosphorylation of EPO-R, Isatin used together with EPO (JAK2-associated EPOR; Isatin together with EPO)	Calcein (cell viability) (UT7/EPO cells [4])	inhibition of Melphalan-induced apoptosis in RPM18226 cells (RPM18226 cells)	inhibition of GM-CSF withdrawal-induced apoptosis in MO7E cells (MO7E cells)	Viable Cell Counts (trypan blue staining) (UT7/EPO cells [5])	STAT5 activity (phosphorylation) during treatment (STAT5)	inhibition of Melphalan-induced apoptosis in freshly isolated peripheral blood mononuclear cells [6]	increase in the hematocrit [7]	shelf life of multi-dose vials in refrigerator after the initial dose [8]
~10 µM	O=C1Nc2ccccc2C1=O [Isatin, Indole-2,3-dione]	↑	↓	synergistic effect	↓	weaker than that of EPO	steadily enhanced when the concentration of Isatin was increased	> 1 h	5 min	induces phosphorylation of EPO-R	significantly enhance the phosphorylation of EPO-R	↑	no noted inhibition	no noted inhibition	↑	no change in STAT5 activity	no noted inhibition		
	Epoetin alfa: recombinant EPO protein developed by Amgen, approved by FDA for the treatment of anemia																	2 % per week	about 20 days
